Here are results for 13 compounds from PubChem BioAssay (NCI).

Test systems include COLO 205 colon; OVCAR-8 ovarian; CAKI-1 renal; HT29 colon; A498 renal; UO-31 renal; SK-MEL-5 melanoma; M14 melanoma; SNB-19 CNS; UACC-257 melanoma; NCI-H23 lung.
Holding throughout (assay): NCI tumour cell line growth inhibition, 48 h

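Cultured in 96-well plates, cells were exposed to test compound for 48 hours across five concentrations. TGI: total growth inhibition.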

In the case of `N#Cc1ccc([N+](=O)[O-])cc1NC(N)=S`, the TGI in the test on COLO 205 colon, in the test with OVCAR-8 ovarian, in the test on CAKI-1 renal, in the test with HT29 colon, in the test with A498 renal and in the test with UO-31 renal was more than 100 µM throughout. The TGI in the test with SK-MEL-5 melanoma, in the test with M14 melanoma and with SNB-19 CNS was more than 100 µM in each case.
As to `CC(=O)OCC1=CC2OC(=O)C3=COC(OC4OC(CO)C(O)C(O)C4O)C1C32` (stereo not given), the TGI in the test on COLO 205 colon, with OVCAR-8 ovarian, in the test with CAKI-1 renal, in the test on HT29 colon, with UACC-257 melanoma and in the test with A498 renal was more than 100 µM in each case. Besides, the TGI with NCI-H23 lung, in the test with UO-31 renal, with SK-MEL-5 melanoma, in the test with M14 melanoma and in the test with SNB-19 CNS was more than 100 µM throughout.
With `O=C1/C(=C/C=C/c2ccccc2)N=C(c2ccccc2)N1c1ccc(S(=O)(=O)Nc2nccs2)cc1`, the TGI was 35.5 µM in the test on COLO 205 colon; more than 100 µM in the test on OVCAR-8 ovarian; more than 100 µM with CAKI-1 renal; 49.8 µM in the test on HT29 colon; more than 100 µM in the test with UACC-257 melanoma; more than 100 µM with A498 renal. The TGI with NCI-H23 lung was 63.8 µM; in the test with UO-31 renal it was 29.9 µM; in the test on SK-MEL-5 melanoma, 54 µM; with M14 melanoma, more than 100 µM; in the test with SNB-19 CNS it was more than 100 µM.
`O=c1oc2cc(O)ccc2c2oc3cc(O)ccc3c12`: the TGI in the test on COLO 205 colon is 72.5 µM; with OVCAR-8 ovarian it was more than 125 µM; with CAKI-1 renal, more than 107 µM; in the test with HT29 colon it was more than 125 µM; in the test with UACC-257 melanoma, 124 µM; in the test with A498 renal it was 3.4 µM. In addition, the TGI was more than 125 µM in the test with NCI-H23 lung, more than 117 µM with UO-31 renal, 69.9 µM in the test with SK-MEL-5 melanoma and 91.7 µM in the test on SNB-19 CNS.
In the case of `CC1(O)C2(c3ccccc3)CCC[N+]1(C)CC2` (stereo not given), the TGI in the test with COLO 205 colon, in the test on OVCAR-8 ovarian, in the test with CAKI-1 renal, with HT29 colon, in the test with UACC-257 melanoma and in the test on A498 renal was more than 100 µM in each case. Further, the TGI in the test on NCI-H23 lung, with UO-31 renal, in the test with SK-MEL-5 melanoma, in the test on M14 melanoma and in the test on SNB-19 CNS was more than 100 µM throughout.
In the case of `CC(=O)OCCCCN1C(=O)CSc2ccccc21`, the TGI in the test on CAKI-1 renal, with UACC-257 melanoma, in the test on A498 renal, with UO-31 renal, with SK-MEL-5 melanoma and in the test with SNB-19 CNS was more than 100 µM throughout.
For `CC[C@@H]1CSC(/C=C/C2OC3OC(C)(C)OC3C3OC(C)(C)OC23)=N1` (stereo not given in full), the TGI in the test with COLO 205 colon amounted to 18 µM; in the test with OVCAR-8 ovarian, 23.8 µM; in the test with CAKI-1 renal it was 28.6 µM; with HT29 colon, 15.9 µM; in the test on UACC-257 melanoma, 26.4 µM; in the test with NCI-H23 lung it was 23.1 µM. In addition, the TGI came out at 22.8 µM in the test on UO-31 renal, 20 µM with SK-MEL-5 melanoma, 22.9 µM in the test with M14 melanoma and 54.8 µM in the test on SNB-19 CNS.
For `CC(C)CNCCc1ccccn1`, the TGI in the test on COLO 205 colon, with OVCAR-8 ovarian, in the test on CAKI-1 renal, in the test with HT29 colon, in the test with UACC-257 melanoma and in the test on A498 renal was more than 100 µM in each case. The TGI in the test on NCI-H23 lung, with UO-31 renal, in the test on SK-MEL-5 melanoma, with M14 melanoma and in the test on SNB-19 CNS was more than 100 µM in each case.
For `C=CCn1c(=O)c(Br)nn(CCOCP(=O)(OCC)OCC)c1=O`, the TGI in the test on COLO 205 colon, with OVCAR-8 ovarian, in the test on CAKI-1 renal, in the test on UACC-257 melanoma, in the test on A498 renal and with NCI-H23 lung was more than 100 µM each time. The TGI in the test with UO-31 renal, with SK-MEL-5 melanoma, in the test with M14 melanoma and with SNB-19 CNS was more than 100 µM each time.
Regarding `CN1c2c(nc(N)[nH]c2=O)NCC1CCNc1ccc(C(=O)NC(CCC(=O)O)C(=O)O)cc1` (stereo not given), the TGI in the test on COLO 205 colon was 2750 µM; in the test on OVCAR-8 ovarian, 2640 µM; in the test with CAKI-1 renal, 1290 µM; in the test with HT29 colon, 1310 µM; in the test on UACC-257 melanoma, 2360 µM; with A498 renal, 2820 µM. Moreover, the TGI in the test with NCI-H23 lung was found to be 3630 µM; with UO-31 renal, 2590 µM; in the test on SK-MEL-5 melanoma, 2470 µM; in the test on M14 melanoma it was 1770 µM; in the test on SNB-19 CNS it was 3250 µM.
For the compound `CN(C)c1ccc(C2CC(=O)CC(c3ccc(N(C)C)cc3)C23C(=O)NC(=S)NC3=O)cc1` (stereo not given), the TGI in the test with COLO 205 colon, in the test on CAKI-1 renal, with HT29 colon, in the test with UACC-257 melanoma, with A498 renal and in the test with NCI-H23 lung was more than 100 µM throughout. Besides, the TGI with UO-31 renal, in the test with SK-MEL-5 melanoma, in the test with M14 melanoma and in the test with SNB-19 CNS was more than 100 µM each time.
For `COc1ccc(C(=O)c2nc3ccccc3nc2N2CCN(c3ccccc3)CC2)cc1OC`, the TGI in the test on COLO 205 colon, with OVCAR-8 ovarian, in the test with CAKI-1 renal, in the test on HT29 colon, in the test on UACC-257 melanoma and in the test on A498 renal was more than 100 µM throughout. Moreover, the TGI with NCI-H23 lung, in the test on UO-31 renal, in the test with SK-MEL-5 melanoma, in the test with M14 melanoma and in the test on SNB-19 CNS was more than 100 µM in each case.
Turning to `Nc1nc(SCCNC(=O)CCc2ccc(O)c(I)c2)nc2c1ncn2C1OC(CO)C(O)C1O` (stereo not given), the TGI with COLO 205 colon, with OVCAR-8 ovarian, with HT29 colon, in the test with UACC-257 melanoma, in the test with A498 renal and with NCI-H23 lung was more than 100 µM in each case. In addition, the TGI in the test with SK-MEL-5 melanoma, with M14 melanoma and in the test on SNB-19 CNS was more than 100 µM each time.
